Results from ChEMBL document CHEMBL1136512, “Discovery of a novel series of 6-azauracil-based thyroid hormone receptor ligands: potent, TR beta subtype-selective thyromimetics” (Bioorg Med Chem Lett, 2003).
pEC50, pKi: −log10 of the molar value.

The compounds below were run against T1, Thyroid hormone receptor beta (Homo sapiens, UniProt P10828).
T1 sequence (P10828 whole entry): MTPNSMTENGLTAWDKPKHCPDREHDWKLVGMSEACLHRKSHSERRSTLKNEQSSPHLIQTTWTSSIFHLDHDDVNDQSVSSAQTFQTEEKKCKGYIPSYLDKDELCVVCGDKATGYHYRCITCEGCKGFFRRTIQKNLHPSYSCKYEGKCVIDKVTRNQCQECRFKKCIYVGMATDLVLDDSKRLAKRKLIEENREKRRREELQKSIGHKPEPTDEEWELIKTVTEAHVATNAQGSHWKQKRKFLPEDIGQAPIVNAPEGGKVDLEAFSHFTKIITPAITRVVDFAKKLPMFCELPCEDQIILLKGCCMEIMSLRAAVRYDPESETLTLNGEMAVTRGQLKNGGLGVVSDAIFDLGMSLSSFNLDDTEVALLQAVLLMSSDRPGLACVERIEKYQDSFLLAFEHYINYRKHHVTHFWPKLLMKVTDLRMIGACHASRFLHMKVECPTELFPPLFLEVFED

| SMILES | pKi |
| --- | --- |
| Cc1cc(-n2ncc(=O)[nH]c2=O)cc(Cl)c1Oc1ccc(O)c(C(=O)N2CCCCC2)c1 | 8.72 |
| Cc1cc(-n2ncc(=O)[nH]c2=O)cc(Cl)c1Oc1ccc(O)c(S(=O)(=O)N2CCOCC2)c1 | 7.57 |
| O=c1cnn(-c2cc(Cl)c(Oc3ccc(O)c(S(=O)(=O)NC4CCC4)c3)c(Cl)c2)c(=O)[nH]1 | 9.40 |
| O=c1cnn(-c2cc(Cl)c(Oc3ccc(O)c(S(=O)(=O)N4C5CCC4CC4(CCCO4)C5)c3)c(Cl)c2)c(=O)[nH]1 (stereo unspecified) | 9.55 |
| Cc1cc(-n2ncc(=O)[nH]c2=O)cc(C)c1Oc1ccc(O)c(S(=O)(=O)N2CCCCC2)c1 | 9.34 |
| Cc1cc(-n2ncc(=O)[nH]c2=O)cc(Cl)c1Oc1ccc(O)c(S(=O)(=O)N2CCCCC2)c1 | 9.89 |
| O=C(c1cc(Oc2c(Cl)cc(-n3ncc(=O)[nH]c3=O)cc2Cl)ccc1O)N1CCOCC1 | 9.14 |
| Cc1cc(-n2ncc(=O)[nH]c2=O)cc(Cl)c1Oc1ccc(O)c(S(=O)(=O)N2CCN(C)CC2)c1 | 7.89 |
| O=c1cnn(-c2cc(Cl)c(Oc3ccc(O)c(S(=O)(=O)n4ccc5ccccc54)c3)c(Cl)c2)c(=O)[nH]1 | 9.64 |
| O=C(NC1CCCCC1)c1cc(Oc2c(Cl)cc(-n3ncc(=O)[nH]c3=O)cc2Cl)ccc1O | 10.15 |
| CSc1ccc(Oc2c(C)cc(-n3ncc(=O)[nH]c3=O)cc2C)cc1C | 8.70 |
| O=C(c1cc(Oc2c(Cl)cc(-n3ncc(=O)[nH]c3=O)cc2Cl)ccc1O)N1CCCCC1 | 9.20 |
| CC1(C)C2CCC(NC(=O)c3cc(Oc4c(Cl)cc(-n5ncc(=O)[nH]c5=O)cc4Cl)ccc3O)C1C2 (stereo in doubt; 9j) | 10.40 |
| O=c1cnn(-c2cc(Cl)c(Oc3ccc(O)c(S(=O)(=O)N4CCCCC4)c3)c(Cl)c2)c(=O)[nH]1 | 10.70 |

Further lines, results first:

| pKi | SMILES |
| --- | --- |
| 10.00 | O=c1cnn(-c2cc(Cl)c(Oc3ccc(O)c(S(=O)(=O)Nc4ccccc4)c3)c(Cl)c2)c(=O)[nH]1 |
| 9.80 | O=C(c1cc(Oc2c(Cl)cc(-n3ncc(=O)[nH]c3=O)cc2Cl)ccc1O)N1CC2CCC1C2 (racemic; endo) |
| 5.00 | Cc1cc(N2CCCNC2=O)cc(C)c1Oc1ccc(O)c(C(C)C)c1 |
| 9.19 | O=C(NC1CCC1)c1cc(Oc2c(Cl)cc(-n3ncc(=O)[nH]c3=O)cc2Cl)ccc1O |
| 10.22 | CC1(C)C2CCC(NC(=O)c3cc(Oc4c(Cl)cc(-n5ncc(=O)[nH]c5=O)cc4Cl)ccc3O)C1C2 (stereo in doubt; 9i) |
| 9.23 | O=C(c1cc(Oc2c(Cl)cc(-n3ncc(=O)[nH]c3=O)cc2Cl)ccc1O)N1CC2CCC1C2 (racemic; exo) |
| 9.34 | O=c1cnn(-c2cc(Cl)c(Oc3ccc(O)c(S(=O)(=O)NC4CCCCC4)c3)c(Cl)c2)c(=O)[nH]1 |
| 9.51 | O=c1cnn(-c2cc(Cl)c(Oc3ccc(O)c(S(=O)(=O)N4C5CCC4CC4(C5)OCCO4)c3)c(Cl)c2)c(=O)[nH]1 |
| 9.43 | O=C(c1cc(Oc2c(Cl)cc(-n3ncc(=O)[nH]c3=O)cc2Cl)ccc1O)N1CC2CCC1C2 (stereo in doubt; 9h (R)-(+)) |

Each compound was assayed against T2, Thyroid hormone receptor alpha (Homo sapiens, UniProt P10827).
T2 sequence (P10827 whole entry): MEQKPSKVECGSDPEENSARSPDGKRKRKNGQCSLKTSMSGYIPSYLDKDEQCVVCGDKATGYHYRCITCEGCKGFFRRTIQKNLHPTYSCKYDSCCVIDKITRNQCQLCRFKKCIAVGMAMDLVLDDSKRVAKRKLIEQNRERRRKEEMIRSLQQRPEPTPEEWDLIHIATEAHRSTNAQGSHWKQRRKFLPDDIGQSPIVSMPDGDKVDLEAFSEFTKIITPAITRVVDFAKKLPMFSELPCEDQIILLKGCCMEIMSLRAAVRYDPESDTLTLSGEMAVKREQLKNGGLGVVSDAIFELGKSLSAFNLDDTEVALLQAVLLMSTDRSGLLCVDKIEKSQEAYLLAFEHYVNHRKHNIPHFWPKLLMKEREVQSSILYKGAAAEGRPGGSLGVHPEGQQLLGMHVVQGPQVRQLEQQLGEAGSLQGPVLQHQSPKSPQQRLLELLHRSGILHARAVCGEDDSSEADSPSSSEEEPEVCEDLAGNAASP
Description: Effective concentration binding towards TRalpha in E25B2 cells (agonistic activity)

| SMILES | pEC50 |
| --- | --- |
| O=c1cnn(-c2cc(Cl)c(Oc3ccc(O)c(S(=O)(=O)N4C5CCC4CC4(CCCO4)C5)c3)c(Cl)c2)c(=O)[nH]1 (stereo unspecified) | 5.82 |
| CC1(C)C2CCC(NC(=O)c3cc(Oc4c(Cl)cc(-n5ncc(=O)[nH]c5=O)cc4Cl)ccc3O)C1C2 (stereo in doubt; 9i) | 7.92 |

Each compound was assayed against T1, Thyroid hormone receptor beta (assay: Effective concentration binding towards TR-beta-1 in E25B2 cells (agonistic activity)).

| SMILES | pEC50 |
| --- | --- |
| O=c1cnn(-c2cc(Cl)c(Oc3ccc(O)c(S(=O)(=O)N4C5CCC4CC4(CCCO4)C5)c3)c(Cl)c2)c(=O)[nH]1 (stereo unspecified) | 7.21 |
